Experimental findings from US20030181334A1, “Herbicidal method” (priority 2001, published 2003) are described below.

Tested on in one series: not given
Experiment: not given
Details: not given
Usually melting point stands for the temperature of the solid-liquid transition. Consider `N#Cc1cc(C#N)cc(Oc2cccc(Oc3cc(C#N)cc(C#N)c3)c2)c1` [Compound 90, 5-[3-(3,5-dicyanophenoxy)phenoxy]isophthalonitrile], for which the melting point lay within 212 to 213 °C.

`N#Cc1cc(C#N)cc(Oc2nccc(Oc3cc(Cl)cc(Cl)c3)n2)c1` [Compound 83, 5-[4-(3,5-dichlorophenoxy)pyrimidin-2-yloxy] isophthalonitrile] came in with a melting point of 156 °C. In the case of `N#Cc1cc(C#N)cc(Oc2cccc(O)c2)c1` [Compound 49, 5-(3-hydroxyphenoxy)isophthalonitrile], the melting point came out at 143 °C. On the same count and under the same terms, the same measure for `N#Cc1cc(C#N)cc(Oc2ccnc(Oc3cc(Cl)cc(Cl)c3)n2)c1` [Compound 84, 5-[2-(3,5-dichlorophenoxy)pyrimidin-4-yloxy]isophthalonitrile]: 196 °C.

The subject of another series is Amaranthus retroflexus, Abutilon theophrasti, Alopecurus myosuroides, Avena fatua, Brassica rapa and Echinochloa crus-galli. Nature of the series: Pre-emergence and post-emergence effect on weeds. The series is classed as in vivo. The conditions noted are these: 500 g/ha or less; pre- or post-emergence application; one or more of the weed species; two weeks after treatment. The text has this: Pre-Emergence Effect on Weeds Seed of various broad-leaf and grass weed species were sown and compound of formula (I), dissolved in a mixture of acetone and water, was applied at a rate of 500 g/ha or less to the soil surface. The weed species used were Amaranthus retroflexus, Abutilon theophrasti, Alopecurus myosuroides, Avena fatua, Brassica rapa and Echinochloa crus-galli. Post-Emergence Effect on Weeds Seed of the weed species Amaranthus retroflexus, Abutilon theophrasti, Alopecurus myosuroides, Avena fatua, Brassica rapa and Echinochloa crus-galli were sown in soil and grown up to a 1-3 leaves stage. A post-emergence application of compound of formula (I), dissolved in a mixture of acetone and water, was applied at a rate of 500 g/ha or less. Two weeks after treatment in the above test methods, weed control was assessed as a percentage reduction in plant growth, in comparison with untreated control.
As for `N#Cc1cccc(Oc2cc(C#N)cc(C#N)c2)c1` [Compound 42, 5-(3-cyanophenoxy)isophthalonitrile], the “herbicidal activity (weed control assessed as percentage reduction in plant growth in comparison with untreated control)” value was “very good herbicidal activity”. Take `N#Cc1cc(C#N)cc(Oc2cccc(Oc3ccnc(Cl)n3)c2)c1` [Compound 1, 5-[3-(2-chloropyrimidin-4-yloxy)phenoxy]isophthalonitrile]: the “herbicidal activity (weed control assessed as percentage reduction in plant growth in comparison with untreated control)” value was “very good herbicidal activity”. `N#Cc1cc(C#N)cc(Oc2cccc(OC(F)(F)C(F)F)c2)c1` [Compound 44, 5-(3-[1,1,2,2-tetrafluoroethoxy]phenoxy)isophthalonitrile]: the “herbicidal activity (weed control assessed as percentage reduction in plant growth in comparison with untreated control)” value was “very good herbicidal activity”.
